Literature values, collected in patent publication US20230255982A1 (priority 2020, published 2023).
Like-named read-outs stand apart in the source and are kept apart here. Marks after values point to notes of the source that are not given here.

System: stage 3-4 CKD patients with diabetic nephropathy
Conditions: ASCEND

SMILES: COc1ccccc1Oc1c(NS(=O)(=O)c2ccc(C)cn2)nc(-c2ccncc2)nc1OC [Avosentan]
- Occurrence of CHF (25 mg, N = 455): 5.9%*
- Occurrence of ESRD (25 mg, N = 455): 4.4%
- Occurrence of CHF (50 mg, N = 478): 6.1%*
- Occurrence of ESRD (50 mg, N = 478): 5.0%
